This note sets out measurements from patent US8349844B2, “Substituted pyrazolo [1,5-A] pyrimidines as metabotropic glutamate antagonists” (Hoffmann-La Roche Inc., priority 2005, dated 2013).

The target in one data set is T1, rat mGlu2 receptor (Rattus norvegicus, UniProt P31421).
T1 construct: expressed in transfected cells; membranes prepared from them
Briefly: [3H]-LY354740 binding on mGlu2 transfected CHO cell membranes. The following applies: [3H]-LY354740 (10 nM) displacement. The source says:
[^3H]-LY354740 Binding on mGlu2 Transfected CHO Cell Membranes. Transfection and Cell Culture
cDNA encoding the rat mGlu2 receptor protein in pBluescript II was subcloned into the eukaryotic expression vector pcDNA I-amp from Invitrogen Ltd (Paisley, UK). This vector construct (pcD1mGR2) was co-transfected with a psvNeo plasmid encoding the gene for neomycin resistance, into CHO cells by a modified calcium phosphate method described by Chen & Okayama (1988). The cells were maintained in Dulbecco's Modified Eagle medium with reduced L-glutamine (2 mM final concentration) and 10% dialysed foetal calf serum from Gibco-Invitrogen (Carlsbad, Calif., USA). Selection was made in the presence of G-418 (1000 ug/ml final) and […]. Clones were identified by reverse transcription of 5 μg total RNA, followed by PCR using mGlu2 receptor specific primers 5′-[…]-3′ and 5′-[…]-3′ in 60 mM Tris HCl (pH 10), 15 mM (NH4)2SO4, 2 mM MgCl2, 25 units/ml Taq Polymerase with 30 cycles annealing at 60° C. for 1 min., extention at 72° C. for 30 s, and 1 min. 95° C. denaturation.
Cells, cultured as above, were harvested and washed three times with cold PBS and frozen at −80° C. The pellet was resuspended in cold 20 mM HEPES-NaOH buffer containing 10 mM EDTA (pH 7.4), and homogenised with a polytron (Kinematica, A G, Littau, Switzerland) for 10 s at 10 000 rpm. After centrifugation for 30 min. at 4° C., the pellet was washed once with the same buffer, and once with cold 20 mM HEPES-NaOH buffer containing 0.1 mM EDTA, (pH 7.4). Protein content was measured using the micro BCA method from Pierce-Perbio (Rockford, Ill., USA) using bovine serum albumin as standard.
After thawing, the membranes were resuspended in cold 50 mM Tris-HCl buffer containing 2 mM MgCl2 (pH 7) (binding buffer). The final concentration of the membranes in the assays was 25 μg protein/ml. Inhibition experiments were performed with membranes incubated with 10 nM [^3H]-LY354740 at room temperature, for 1 hour, in presence of various concentrations of the compound to be tested. Following the incubations, membranes were filtered onto Whatmann GF/B glass fiber filters and washed 5 times with cold binding buffer. Non specific binding was measured in the presence of 10 μM DCG IV. After transfer of the filters into plastic vials containing 10 ml of Ultima-gold scintillation fluid from Perkin-Elmer (Boston, Mass., USA), the radioactivity was measured by liquid scintillation in a Tri-Garb 2500 TR counter (Packard, Zürich, Switzerland).
The inhibition curves were fitted with a four parameter logistic equation giving IC50 values, and Hill coefficients.

T1 sequence (P31421 19-872): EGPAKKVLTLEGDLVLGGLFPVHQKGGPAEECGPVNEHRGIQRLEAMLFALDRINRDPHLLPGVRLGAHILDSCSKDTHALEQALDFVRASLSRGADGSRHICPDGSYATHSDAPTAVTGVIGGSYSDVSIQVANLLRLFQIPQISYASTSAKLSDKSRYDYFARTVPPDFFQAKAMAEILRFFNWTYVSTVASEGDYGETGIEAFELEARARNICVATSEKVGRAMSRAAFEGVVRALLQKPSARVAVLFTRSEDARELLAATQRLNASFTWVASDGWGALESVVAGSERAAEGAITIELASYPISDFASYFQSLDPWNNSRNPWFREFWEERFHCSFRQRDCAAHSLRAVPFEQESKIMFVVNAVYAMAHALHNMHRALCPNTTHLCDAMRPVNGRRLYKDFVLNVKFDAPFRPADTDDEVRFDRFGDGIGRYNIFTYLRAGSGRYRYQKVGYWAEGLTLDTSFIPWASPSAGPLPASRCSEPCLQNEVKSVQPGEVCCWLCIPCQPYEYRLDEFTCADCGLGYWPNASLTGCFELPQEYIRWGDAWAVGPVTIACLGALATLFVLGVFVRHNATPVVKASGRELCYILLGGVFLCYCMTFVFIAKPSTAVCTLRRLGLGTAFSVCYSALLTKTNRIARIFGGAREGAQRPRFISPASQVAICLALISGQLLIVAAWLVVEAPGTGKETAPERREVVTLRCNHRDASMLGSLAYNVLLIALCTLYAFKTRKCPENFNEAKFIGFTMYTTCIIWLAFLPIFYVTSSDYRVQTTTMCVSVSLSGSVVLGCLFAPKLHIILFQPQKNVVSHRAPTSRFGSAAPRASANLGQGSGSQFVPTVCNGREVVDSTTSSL

On to `Cc1cc(-c2ccc(C(F)(F)F)cc2)cn2c(-c3nc(-c4cnc(N)nc4)no3)cnc12` [Example 48, 5-{5-[8-Methyl-6-(4-trifluoromethyl-phenyl)-imidazo[1,2-a]pyridin-3-yl]-[1,2,4]oxadiazol-3-yl}-pyrimidin-2-ylamine], for which the melting point (usually the temperature, or range, at which the solid turns liquid) was 302 °C. Besides, affinity at rat mGlu2 receptor was put at a Ki of 6.5 nM.
In turn, `NS(=O)(=O)c1ccc(-c2nc(-c3ncn4c(C(F)(F)F)cc(-c5ccc(C(F)(F)F)cc5)nc34)no2)cc1` [Example 21, 4-{3-[4-Trifluoromethyl-2-(4-trifluoromethyl-phenyl)-imidazo[1,5-a]pyrimidin-8-yl]-[1,2,4]oxadiazol-5-yl}-benzenesulfonamide] registered a melting point of 303 °C. Also, affinity at rat mGlu2 receptor was put at a Ki of 10.2 nM.
The like results for `NS(=O)(=O)c1ccc(-c2noc(-c3cnn4c(C5CC5)cc(-c5ccc(Cl)cc5)nc34)n2)s1` [Example 20, 5-{5-[5-(4-Chloro-phenyl)-7-cydopropyl-pyrazolo[1,5-a]pyrimidin-3-yl]-[1,2,4]oxadiazol-3-yl}-thiophene-2-sulfonic acid amide] were, in that order, 294 °C and 16.1 nM.
The like results for `Nc1ncc(-c2noc(-c3cnn4c(C(F)(F)F)cc(-c5ccc(C(F)(F)F)cc5)nc34)n2)cn1` [Example 46, 5-{5-[7-Trifluoromethyl-5-(4-trifluoromethyl-phenyl)-pyrazolo[1,5-a]pyrimidin-3-yl]-[1,2,4]oxadiazol-3-yl}-pyrimidin-2-ylamine] were, in that order, 254 °C and 14.5 nM.
The like results for `NS(=O)(=O)c1cccc(-c2noc(-c3cnc4c(C(F)(F)F)cc(-c5ccc(C(F)(F)F)cc5)cn34)n2)c1` [Example 11, 3-{5-[8-Trifluoromethyl-6-(4-trifluoromethyl-phenyl)-imidazo[1,2-a]pyridin-3-yl]-[1,2,4]oxadiazol-3-yl}-benzenesulfonamide] were, in that order, 297 °C and 8.8 nM.
Take `NS(=O)(=O)c1ccc(-c2noc(-c3ncn4c(C(F)(F)F)cc(-c5ccc(C(F)(F)F)cc5)nc34)n2)s1` [Example 42, 5-{5-[4-Trifluoromethyl-2-(4-trifluoromethyl-phenyl)-imidazo[1,5-a]pyrimidin-8-yl]-[1,2,4]oxadiazol-3-yl}-thiophene-2-sulfonic acid amide]: the melting point worked out at 295 °C. For the same molecule, on rat mGlu2 receptor, the Ki (commonly the dissociation constant of the complex between target and ligand, obtained from inhibition or displacement) came to 14.6 nM.
Turning to `Cc1cc(-c2ccc(C(F)(F)F)cc2)cn2c(-c3nc(-c4ccc(N)nc4)no3)cnc12` [Example 47, 5-{5-[8-Methyl-6-(4-trifluoromethyl-phenyl)-imidazo[1,2-a]pyridin-3-yl]-[1,2,4]oxadiazol-3-yl}-pyridin-2-ylamine], the melting point was 257 °C. Further, the inhibitory constant (Ki) on rat mGlu2 receptor amounted to 7.7 nM.
In turn, `Cc1cc(-c2cc(C(F)F)n3ncc(-c4nc(-c5ccc(N)nc5)no4)c3n2)ccc1Cl` [Example 77, 5-{5-[5-(4-Chloro-3-methyl-phenyl)-7-difluoromethyl-pyrazolo[1,5-a]pyrimidin-3-yl]-[1,2,4]oxadiazol-3-yl}-pyridin-2-ylamine] yielded a melting point of 243 °C. This molecule also returned a Ki on rat mGlu2 receptor of 25.5 nM.
Turning to `Nc1ccc(-c2noc(-c3cnn4c(C(F)(F)F)cc(-c5cccc(C(F)(F)F)c5)nc34)n2)cn1` [Example 34, 5-{5-[7-Trifluoromethyl-5-(3-trifluoromethyl-phenyl)-pyrazolo[1,5-a]pyrimidin-3-yl]-[1,2,4]oxadiazol-3-yl}-pyridin-2-ylamine], the melting point is 264 °C. The molecule also yielded an inhibition constant Ki at rat mGlu2 receptor of 51 nM.
The like results for `FC(F)(F)c1ccc(-c2cc(C(F)(F)F)n3ncc(-c4nc(-c5cccnc5)no4)c3n2)cc1` [Example 3, 3-(3-Pyridin-3-yl-[1,2,4]oxadiazol-5-yl)-7-trifluoromethyl-5-(4-trifluoromethyl-phenyl)-pyrazolo[1,5-a]pyrimidine] were, in that order, 199 °C and 48.1 nM.
Molecule `Cc1cc(-c2cc(C(F)(F)F)n3ncc(-c4nc(-c5ccnc(N)c5)no4)c3n2)ccc1C(F)(F)F` [Example 87, 4-{5-[5-(3-Methyl-4-trifluoromethyl-phenyl)-7-trifluoromethyl-pyrazolo[1,5-a]pyrimidin-3-yl]-[1,2,4]oxadiazol-3-yl}-pyridine-2-ylamine] came in with a melting point of 245 °C.
Still for that read-out and setting: for `Nc1ccc(-c2noc(-c3cnn4c(C(F)(F)F)cc(-c5ccc(Cl)c(Cl)c5)nc34)n2)cn1` [Example 67, 5-{5-[5-(3,4-Dichloro-phenyl)-7-trifluoromethyl-pyrazolo[1,5-a]pyrimidin-3-yl]-[1,2,4]oxadiazol-3-yl}-pyridin-2-ylamine] the value was 289 °C.
Consider `Nc1ccc(-c2noc(-c3cnn4c(C(F)F)cc(-c5ccc(Cl)c(Cl)c5)nc34)n2)cn1` [Example 66, 5-{5-[5-(3,4-Dichloro-phenyl)-7-difluoromethyl-pyrazolo[1,5-a]pyrimidin-3-yl]-[1,2,4]oxadiazol-3-yl}-pyridin-2-ylamine], for which the melting point amounted to 279 °C.
In the case of `NS(=O)(=O)c1cccc(-c2noc(-c3cnn4ccc(-c5ccc(C(F)(F)F)cc5)nc34)n2)c1` [Example 53, 3-{5-[5-(4-Trifluoromethyl-phenyl)-pyrazolo[1,5-a]pyrimidin-3-yl]-[1,2,4]oxadiazol-3-yl}-benzenesulfonamide], the melting point is 270 °C.
On the same count and under the same terms, for `Nc1cc(-c2noc(-c3cnn4ccc(-c5ccc(C(F)(F)F)cc5)nc34)n2)ccn1` [Example 59, 4-{5-[5-(4-Trifluoromethyl-phenyl)-pyrazolo[1,5-a]pyrimidin-3-yl]-[1,2,4]oxadiazol-3-yl}-pyridin-2-ylamine] the value was 250 °C.
Consider `Cc1cc(-c2ccc(Cl)cc2)cn2c(-c3nc(-c4ccc(S(N)(=O)=O)s4)no3)cnc12` [Example 41, 5-{5-[6-(4-Chloro-phenyl)-8-methyl-imidazo[1,2-a]pyridin-3-yl]-[1,2,4]oxadiazol-3-yl}-thiophene-2-sulfonic acid amide], for which the melting point stood at 271 °C. Moreover, the affinity at rat mGlu2 receptor corresponds to a Ki of 21.3 nM.
In turn, `Nc1ncc(-c2noc(-c3cnn4c(C(F)(F)F)cc(-c5ccc(F)c(F)c5)nc34)n2)cn1` [Example 78, 5-{5-[5-(3,4-Difluoro-phenyl)-7-trifluoromethyl-pyrazolo[1,5-a]pyrimidin-3-yl]-[1,2,4]oxadiazol-3-yl}-pyrimidin-2-ylamine] showed a melting point of 268 °C.
In turn, `NS(=O)(=O)c1ccc(-c2noc(-c3cnn4c(C(F)(F)F)cc(-c5ccc(C(F)(F)F)cc5)nc34)n2)cc1` [Example 1, 4-{5-[7-Trifluoromethyl-5-(4-trifluoromethyl-phenyl)-pyrazolo[1,5-a]pyrimidin-3-yl]-[1,2,4]oxadiazol-3-yl}-benzenesulfonamide] came in with a melting point of 275 °C. This molecule registered an inhibition constant Ki at rat mGlu2 receptor of 5.6 nM.
In turn, `Cc1cc(-c2cc(C(F)(F)F)n3ncc(-c4nc(-c5cnc(N)nc5)no4)c3n2)ccc1C(F)(F)F` [Example 83, 5-{5-[5-(3-Methyl-4-trifluoromethyl-phenyl)-7-trifluoromethyl-pyrazolo[1,5-a]pyrimidin-3-yl]-[1,2,4]oxadiazol-3-yl}-pyrimidin-2-ylamine] showed a melting point of 272 °C.
Molecule `NS(=O)(=O)c1ccc(-c2noc(-c3cnn4c(C(F)F)cc(-c5ccc(C(F)(F)F)cc5)nc34)n2)cc1` [Example 4, 4-{5-[7-Difluoromethyl-5-(4-trifluoromethyl-phenyl)-pyrazolo[1,5-a]pyrimidin-3-yl]-[1,2,4]oxadiazol-3-yl}-benzenesulfonamide] showed a melting point of 283 °C.
Molecule `Nc1ccc(-c2noc(-c3cnn4c(C(F)F)cc(-c5ccc(C(F)(F)F)c(Cl)c5)nc34)n2)cn1` [Example 72, 5-{5-[5-(3-Chloro-4-trifluoromethyl-phenyl)-7-difluoromethyl-pyrazolo[1,5-a]pyrimidin-3-yl]-[1,2,4]oxadiazol-3-yl}-pyridin-2-ylamine] yielded a melting point of 252 °C.
